“And” between values parts separate entries of the source, which are not always exact repeats. Equal entries are not always repeated.
Legend:
Format in all cases: cell-based
human H4R T99A mutant = target: T1, human H4R T99A mutant (Homo sapiens, UniProt Q9H3N8, T99A); assay: TGFα shedding assay, H4R T99A mutant
T1 construct: a mutant H4R (human, full-length, and untagged); expressed in transfected cells; host or cells: HEK293A
Procedure: (§1) The mutants were prepared using the primers listed in Supplementary Table 2. […] The chimeric Gαq/i1 subunit comprises the Gαq backbone and Gαi1-derived six-amino acid C-terminus and couples with Gi-coupled H4R but induces a Gq-dependent TGFα shedding response. After culturing for 1 day and incubating at 37 °C in a 5% CO2 incubator, the transfected cells were harvested by trypsinization, neutralized with Dulbecco’s modified Eagle’s medium containing 10% fetal calf serum (FCS) and penicillin–streptomycin, washed once with Hank’s balanced salt solution (HBSS) containing 5 mM of HEPES (pH 7.4), and resuspended in 6 mL of the HEPES-containing HBSS. The cell suspension was seeded into a 96-well plate at a volume of […] per well (typically, 48 wells per transfected cells) and incubated for 30 min in the CO2 incubator. Test compounds (10×, diluted in 0.01% BSA and 5 mM of HEPES-containing HBSS, […] volume) were added to duplicate wells and incubated for 1 h. After centrifugation, the conditioned medium ([…]) was transferred to an empty 96-well plate. AP reaction solution [10 mM of p-nitrophenylphosphate (p-NPP), 120 mM of Tris–HCl (pH 9.5), 40 mM of NaCl, and 10 mM of MgCl2] was dispensed into the cell culture plates and plates containing conditioned media ([…]). Absorbance was measured at 405 nm before and after a 1-h incubation period at 25 °C using a microplate reader (iMark™ Microplate Absorbance Reader; BioRad). Ligand-induced AP-TGFα release was calculated as previously described. The vehicle-treated AP-TGFα release signal was set as a baseline unless otherwise specified. AP-TGFα release signals were fitted with a four-parameter sigmoidal concentration-response curve, from which EC50 and Emax values were obtained, using GraphPad Prism 9 software (GraphPad Prism). Negative values of logarithmically transformed EC50 values (pEC50) were used to calculate the mean and standard error of independent experiments.
(§2) All functional study data were analyzed using Prism 9 (GraphPad) and are presented as mean ± standard error of the mean (SEM) of three independent experiments. Statistical analyses were performed using Prism 9 (GraphPad) with one-way analysis of variance followed by Dunnett’s post-hoc test. Values with p < 0.05 are considered statistically significant.

human H4R E182N mutant = target: T2, human H4R E182N mutant (Homo sapiens, UniProt Q9H3N8, E182N); assay: TGFα shedding assay, H4R E182N mutant
T2 construct: a mutant H4R (human, full-length, and untagged); expressed in transfected cells; host or cells: HEK293A
Procedure: as §1
(§3) All functional study data were analyzed using Prism 9 (GraphPad) and are presented as mean ± standard error of the mean (SEM) of three independent experiments. […]

human H4R E182A mutant = target: T3, human H4R E182A mutant (Homo sapiens, UniProt Q9H3N8, E182A); assay: TGFα shedding assay, H4R E182A mutant
T3 construct: a mutant H4R (human, full-length, and untagged); expressed in transfected cells; host or cells: HEK293A
Procedure: The mutants were prepared using the primers listed in Supplementary Table 2. […] The chimeric Gαq/i1 subunit comprises the Gαq backbone and Gαi1-derived six-amino acid C-terminus and couples with Gi-coupled H4R but induces a Gq-dependent TGFα shedding response. After culturing for 1 day and incubating at 37 °C in a 5% CO2 incubator, the transfected cells were harvested by trypsinization, neutralized with Dulbecco’s modified Eagle’s medium containing 10% fetal calf serum (FCS) and penicillin–streptomycin, washed once with Hank’s balanced salt solution (HBSS) containing 5 mM of HEPES (pH 7.4), and resuspended in 6 mL of the HEPES-containing HBSS. The cell suspension was seeded into a 96-well plate at a volume of […] per well (typically, 48 wells per transfected cells) and incubated for 30 min in the CO2 incubator. Test compounds (10×, diluted in 0.01% BSA and 5 mM of HEPES-containing HBSS, […] volume) were added to duplicate wells and incubated for 1 h. […] Absorbance was measured at 405 nm before and after a 1-h incubation period at 25 °C using a microplate reader (iMark™ Microplate Absorbance Reader; BioRad). Ligand-induced AP-TGFα release was calculated as previously described. […]
as §3

human H4R Q347G mutant = target: T4, human H4R Q347G mutant (Homo sapiens, UniProt Q9H3N8, Q347G); assay: TGFα shedding assay, H4R Q347G mutant
T4 construct: a mutant H4R (human, full-length, and untagged); expressed in transfected cells; host or cells: HEK293A
Procedure: as §1, §2

human H4R C98A mutant = target: T5, human H4R C98A mutant (Homo sapiens, UniProt Q9H3N8, C98A); assay: TGFα shedding assay, H4R C98A mutant
T5 construct: a mutant H4R (human, full-length, and untagged); expressed in transfected cells; host or cells: HEK293A
Procedure: as §1, §2

human H4R N147W mutant = target: T6, human H4R N147W mutant (Homo sapiens, UniProt Q9H3N8, N147W); assay: TGFα shedding assay, H4R N147W mutant; settings: for EC50: EC50 (nM)
T6 construct: a mutant H4R (human, full-length, and untagged); expressed in transfected cells; host or cells: HEK293A
Procedure: as §1, §2

human H4R Y319A mutant = target: T7, human H4R Y319A mutant (Homo sapiens, UniProt Q9H3N8, Y319A); assay: TGFα shedding assay, H4R Y319A mutant
T7 construct: a mutant H4R (human, full-length, and untagged); expressed in transfected cells; host or cells: HEK293A
Procedure: as §1, §2

human H4R D94A mutant = target: T8, human H4R D94A mutant (Homo sapiens, UniProt Q9H3N8, D94A); assay: TGFα shedding assay, H4R D94A mutant
T8 construct: a mutant H4R (human, full-length, and untagged); expressed in transfected cells; host or cells: HEK293A
Procedure: as §1, §3

[1] = Imetit (M) -5 (log concentration), raw replicate values

T2 sequence (Q9H3N8 whole entry E182N): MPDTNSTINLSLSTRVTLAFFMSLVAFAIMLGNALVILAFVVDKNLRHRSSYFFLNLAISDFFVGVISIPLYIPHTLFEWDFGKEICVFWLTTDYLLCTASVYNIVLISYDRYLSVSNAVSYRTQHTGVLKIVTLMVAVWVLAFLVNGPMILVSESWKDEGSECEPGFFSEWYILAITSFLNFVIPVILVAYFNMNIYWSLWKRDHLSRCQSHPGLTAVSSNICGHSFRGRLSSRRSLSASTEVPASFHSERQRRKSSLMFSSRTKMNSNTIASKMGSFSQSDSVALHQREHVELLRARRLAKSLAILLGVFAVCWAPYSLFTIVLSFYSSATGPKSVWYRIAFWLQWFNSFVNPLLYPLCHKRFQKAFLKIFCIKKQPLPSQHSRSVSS
T4 sequence (Q9H3N8 whole entry Q347G): as the sequence (Q9H3N8 whole entry E182N) above, with N182E, Q347G counted along it
T3 sequence (Q9H3N8 whole entry E182A): as the sequence (Q9H3N8 whole entry E182N) above, with N182A counted along it
T6 sequence (Q9H3N8 whole entry N147W): as the sequence (Q9H3N8 whole entry E182N) above, with N147W, N182E counted along it
T8 sequence (Q9H3N8 whole entry D94A): as the sequence (Q9H3N8 whole entry E182N) above, with D94A, N182E counted along it
T5 sequence (Q9H3N8 whole entry C98A): as the sequence (Q9H3N8 whole entry E182N) above, with C98A, N182E counted along it
T7 sequence (Q9H3N8 whole entry Y319A): as the sequence (Q9H3N8 whole entry E182N) above, with N182E, Y319A counted along it
T1 sequence (Q9H3N8 whole entry T99A): as the sequence (Q9H3N8 whole entry E182N) above, with T99A, N182E counted along it

## N=C(N)SCCc1cnc[nH]1 [Imetit, imetit]
Human H4R T99A mutant; T99A mutant, EC50 relative to WT
  fold of change: 2.5 fold
Human H4R T99A mutant; read-out: Emax (%) mean ± SEM
  Emax: 13.7 ± 1.67%
Human H4R E182N mutant
  EC50: > 10 µM
Human H4R E182N mutant; [1]
  Shedding assay response, E182N: -0.3367 and 1.68 and -1.08 and 4.253 and 4.399 and 3.645 and 9.053 and 3.546 and 4.747
Human H4R E182A mutant
  EC50: > 10 µM
Human H4R E182A mutant; [1]
  Shedding assay response, E182A: 0.5777 and -0.6527 and 0.544 and 1.716 and -0.08867 and -2.204 and 4.0352 and 2.359 and 1.291
Human H4R Q347G mutant; EC50 (nM), Q347G mutant
  EC50: 6.2 nM
Human H4R Q347G mutant; EC50 (nM), Q347G, single experiments, source data Figure 4e-f
  EC50: 1.75 nM and 12.3 nM and 4.7 nM
Human H4R Q347G mutant; [1]
  Shedding assay response, Q347G: 13.312 and 10.4592 and 11.4881 and 12.2257 and 13.3616 and 12.7037 and 13.9485 and 10.6151 and 26.3814
Human H4R Q347G mutant; Q347G (H1R/H2R type) mutant vs wild type
  signaling activity at mutant, in words: slight increase
Human H4R Q347G mutant; Q347G mutant, EC50 relative to WT
  fold of change: 0.2 fold
Human H4R Q347G mutant; pEC50, Q347G, single experiments, source data Figure 4e-f
  EC50: 12.3 nM
Human H4R Q347G mutant; pEC50 mean ± SEM, Q347G mutant
  EC50: 4.68 nM
Human H4R Q347G mutant; read-out: Emax (%) mean ± SEM
  Emax: 12.9 ± 1.22%
Human H4R C98A mutant; C98A mutant
  EC50: 479 nM
Human H4R C98A mutant; C98A mutant, EC50 relative to WT
  fold of change: 16.3 fold
Human H4R C98A mutant; EC50 (nM), C98A mutant
  EC50: 486 nM
Human H4R C98A mutant; [1]
  Shedding assay response, C98A: 13.5967 and 12.9858 and 12.6952 and 16.5163 and 19.8944 and 18.7443 and 18.3535 and 16.3047 and 17.1057
Human H4R C98A mutant; read-out: Emax (%) mean ± SEM
  Emax: 17.1 ± 1.72%
Human H4R N147W mutant; N147W mutant
  EC50: 603 nM
Human H4R N147W mutant; N147W, single experiments, source data Figure 4e-f
  EC50: 569 nM and 612 nM and 627 nM
Human H4R N147W mutant; [1]
  Shedding assay response, N147W: 17.8239 and 17.9174 and 17.7465 and 15.1009 and 14.2938 and 15.4251 and 18.7186 and 19.6688 and 18.9313
Human H4R N147W mutant; N147W mutant, EC50 relative to WT
  fold of change: 20.2 fold
Human H4R N147W mutant; read-out: Emax (%) mean ± SEM
  Emax: 18.4 ± 1.29%
Human H4R Y319A mutant; EC50 (nM), Y319A mutant
  EC50: 159 nM
Human H4R Y319A mutant; [1]
  Shedding assay response, Y319A: 15.1866 and 16.9873 and 18.1596 and 17.4201 and 15.3203 and 22.2497 and 14.1035 and 13.1515 and 10.7745
Human H4R Y319A mutant; Y319A mutant, EC50 relative to WT
  fold of change: 5.3 fold
Human H4R Y319A mutant; pEC50 mean ± SEM, Y319A mutant
  EC50: 141 nM
Human H4R Y319A mutant; read-out: Emax (%) mean ± SEM
  Emax: 15.8 ± 1.58%
Human H4R D94A mutant
  EC50: > 10 µM
Human H4R D94A mutant; [1]
  Shedding assay response, D94A: -0.3449 and 0.03257 and -1.499 and 0.2405 and 1.217 and -0.1126 and 0.7155 and 3.933 and 12.3814

— PMC10589313 (Nature Communications, 2023)
